What was measured:
Type in all cases: cell-based
[1] = test system: HCT-116 colorectal cancer cell line; test: CCK-8 proliferation inhibition; settings: Homo sapiens, HCT-116, 72 h, concentration of 30 μM; 72 hours; CCK-8; read-out: HCT116 inhibition rate/%
Outline: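 Cells were plated overnight at 2000 cells/well, then compound in culture medium was added at a range of final concentrations. After 72 hours in a CO2 incubator, medium was replaced with 1:10 CCK-8 solution for the read-out.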

[2] = test system: methicillin-resistant Staphylococcus epidermidis (MRSE); test: MIC, two-fold agar dilution (CLSI), clinical isolates; settings: for Anti-bacterial activity (MIC), strain MRSE 15-1: clinical isolate MRSE 15-1; for Anti-bacterial activity (MIC), strain MRSE 15-2: clinical isolate MRSE 15-2; for Anti-bacterial activity (MIC), strain MRSE 15-3: clinical isolate MRSE 15-3; for Anti-bacterial activity (MIC), strain MRSE 15-7: clinical isolate MRSE 15-7
Description: (§1) 1. The invention adopts the two-fold agar dilution method recommended by the operating procedure of antimicrobial susceptibility testing set by American Clinical and Laboratory Standards Institute (CLSI) to determine the Minimum Inhibitory Concentration (MIC) of the test samples against the tested strains.

[3] = test system: methicillin-resistant Staphylococcus aureus (MRSA); test: as above; settings: for Anti-bacterial activity (MIC), strain MRSA 15-1: clinical isolate MRSA 15-1; for Anti-bacterial activity (MIC), strain MRSA 15-2: clinical isolate MRSA 15-2; for Anti-bacterial activity (MIC), strain MRSA 15-3: clinical isolate MRSA 15-3; for Anti-bacterial activity (MIC), strain MRSA 15-4: clinical isolate MRSA 15-4
Description: as §1

[4] = test system: Escherichia coli (including ESBLs, non-ESBLs); test: as above; settings: for Anti-bacterial activity (MIC), strain ECO+ 15-1: clinical isolate ECO+ 15-1; for Anti-bacterial activity (MIC), strain ECO+ 15-2: clinical isolate ECO+ 15-2; for Anti-bacterial activity (MIC), strain ECO+ 15-3: clinical isolate ECO+ 15-3; for Anti-bacterial activity (MIC), strain ECO+ 15-4: clinical isolate ECO+ 15-4; for Anti-bacterial activity (MIC), strain ECO− 15-1: clinical isolate ECO− 15-1; for Anti-bacterial activity (MIC), strain ECO− 15-2: clinical isolate ECO− 15-2; for Anti-bacterial activity (MIC), strain ECO− 15-3: clinical isolate ECO− 15-3; for Anti-bacterial activity (MIC), strain ECO− 15-4: clinical isolate ECO− 15-4
Description: as §1

[5] = test system: methicillin-sensitive Staphylococcus epidermidis (MSSE); test: as above; settings: for Anti-bacterial activity (MIC), strain MSSE 15-3: clinical isolate MSSE 15-3; for Anti-bacterial activity (MIC), strain MSSE 15-4: clinical isolate MSSE 15-4; for Anti-bacterial activity (MIC), strain MSSE 15-5: clinical isolate MSSE 15-5; for Anti-bacterial activity (MIC), strain MSSE 15-6: clinical isolate MSSE 15-6
Description: as §1

[6] = test system: Moraxella catarrhalis (BCA); test: as above; settings: for Anti-bacterial activity (MIC), strain BCA 14-1: clinical isolate BCA 14-1; for Anti-bacterial activity (MIC), strain BCA 14-4: clinical isolate BCA 14-4; for Anti-bacterial activity (MIC), strain BCA 14-5: clinical isolate BCA 14-5; for Anti-bacterial activity (MIC), strain BCA 14-6: clinical isolate BCA 14-6; for Anti-bacterial activity (MIC), strain BCA 14-7: clinical isolate BCA 14-7; for Anti-bacterial activity (MIC), strain BCA 14-8: clinical isolate BCA 14-8; for Anti-bacterial activity (MIC), strain BCA 14-10: clinical isolate BCA 14-10
Description: as §1

[7] = test system: Streptococcus pneoumoniae (SPN); test: as above; settings: for Anti-bacterial activity (MIC), strain SPN 16-2: clinical isolate SPN 16-2; for Anti-bacterial activity (MIC), strain SPN 16-4: clinical isolate SPN 16-4
Description: as §1

[8] = test system: Enterococcus faecalis (EFA); test: as above; settings: for Anti-bacterial activity (MIC), strain EFA 15-1: clinical isolate EFA 15-1; for Anti-bacterial activity (MIC), strain EFA 15-2: clinical isolate EFA 15-2; for Anti-bacterial activity (MIC), strain EFA 15-3: clinical isolate EFA 15-3; for Anti-bacterial activity (MIC), strain EFA 15-4: clinical isolate EFA 15-4; for Anti-bacterial activity (MIC), strain EFA 15-5: clinical isolate EFA 15-5; for Anti-bacterial activity (MIC), strain EFA 15-6: clinical isolate EFA 15-6; for Anti-bacterial activity (MIC), strain EFA 15-9: clinical isolate EFA 15-9
Description: as §1

[9] = test system: Enterococcus faecium (EFM); test: as above; settings: for Anti-bacterial activity (MIC), strain EFM 15-1: clinical isolate EFM 15-1; for Anti-bacterial activity (MIC), strain EFM 15-2: clinical isolate EFM 15-2; for Anti-bacterial activity (MIC), strain EFM 15-3: clinical isolate EFM 15-3; for Anti-bacterial activity (MIC), strain EFM 15-4: clinical isolate EFM 15-4; for Anti-bacterial activity (MIC), strain EFM 15-5: clinical isolate EFM 15-5; for Anti-bacterial activity (MIC), strain EFM 15-6: clinical isolate EFM 15-6
Description: as §1

[10] = test system: methicillin-sensitive Staphylococcus aureus (MSSA); test: as above; settings: for Anti-bacterial activity (MIC), strain MSSA 15-3: clinical isolate MSSA 15-3; for Anti-bacterial activity (MIC), strain MSSA 15-4: clinical isolate MSSA 15-4; for Anti-bacterial activity (MIC), strain MSSA 15-5: clinical isolate MSSA 15-5; for Anti-bacterial activity (MIC), strain MSSA 15-6: clinical isolate MSSA 15-6
Description: as §1

O=CN(O)C[C@@H](CC1CCCC1)C(=O)N1CC2(CC2)C[C@H]1c1nc2ccccc2[nH]1 [Example 42, N—((R)-3-((S)-6-(1H-benzimidazol-2-yl)-5-azaspiro[2.4]heptane-5-yl)-2-(cyclopentylmethyl)-3-propylcarbonyl)-N-hydroxyformamide]
4 µg/mL: Anti-bacterial activity (MIC), strain BCA 14-8 [6] | Anti-bacterial activity (MIC), strain EFA 15-3 [8] | Anti-bacterial activity (MIC), strain EFM 15-2 [9] | Anti-bacterial activity (MIC), strain EFM 15-4 [9] | Anti-bacterial activity (MIC), strain EFM 15-6 [9]
16 µg/mL: Anti-bacterial activity (MIC), strain ECO+ 15-1 [4] | Anti-bacterial activity (MIC), strain ECO+ 15-4 [4] | Anti-bacterial activity (MIC), strain SPN 16-4 [7] | Anti-bacterial activity (MIC), strain EFA 15-1 [8] | Anti-bacterial activity (MIC), strain EFA 15-2 [8] | Anti-bacterial activity (MIC), strain EFA 15-4 [8] | Anti-bacterial activity (MIC), strain EFA 15-5 [8] | Anti-bacterial activity (MIC), strain EFA 15-6 [8] | Anti-bacterial activity (MIC), strain EFA 15-9 [8]
1 µg/mL: Anti-bacterial activity (MIC), strain MRSA 15-3 [3] | Anti-bacterial activity (MIC), strain MRSA 15-4 [3] | Anti-bacterial activity (MIC), strain BCA 14-1 [6] | Anti-bacterial activity (MIC), strain BCA 14-7 [6] | Anti-bacterial activity (MIC), strain BCA 14-10 [6] | Anti-bacterial activity (MIC), strain SPN 16-2 [7] | Anti-bacterial activity (MIC), strain EFM 15-3 [9] | Anti-bacterial activity (MIC), strain MSSA 15-5 [10]
14%: inhibition at 30 µM [1]
2 µg/mL: Anti-bacterial activity (MIC), strain MRSE 15-1 [2] | Anti-bacterial activity (MIC), strain MRSE 15-2 [2] | Anti-bacterial activity (MIC), strain MRSE 15-3 [2] | Anti-bacterial activity (MIC), strain MRSE 15-7 [2] | Anti-bacterial activity (MIC), strain MRSA 15-1 [3] | Anti-bacterial activity (MIC), strain MRSA 15-2 [3] | Anti-bacterial activity (MIC), strain MSSE 15-3 [5] | Anti-bacterial activity (MIC), strain MSSE 15-4 [5] | Anti-bacterial activity (MIC), strain MSSE 15-5 [5] | Anti-bacterial activity (MIC), strain MSSE 15-6 [5] | Anti-bacterial activity (MIC), strain BCA 14-4 [6] | Anti-bacterial activity (MIC), strain BCA 14-5 [6] | Anti-bacterial activity (MIC), strain BCA 14-6 [6] | Anti-bacterial activity (MIC), strain EFM 15-1 [9] | Anti-bacterial activity (MIC), strain EFM 15-5 [9] | Anti-bacterial activity (MIC), strain MSSA 15-3 [10] | Anti-bacterial activity (MIC), strain MSSA 15-4 [10] | Anti-bacterial activity (MIC), strain MSSA 15-6 [10]
32 µg/mL: Anti-bacterial activity (MIC), strain ECO+ 15-2 [4] | Anti-bacterial activity (MIC), strain ECO+ 15-3 [4] | Anti-bacterial activity (MIC), strain ECO− 15-1 [4] | Anti-bacterial activity (MIC), strain ECO− 15-2 [4] | Anti-bacterial activity (MIC), strain ECO− 15-3 [4] | Anti-bacterial activity (MIC), strain ECO− 15-4 [4]

CCCC[C@H](CC(=O)NO)C(=O)N1CC2(CC2)C[C@H]1C(=O)Nc1ccc(N2CCOCC2)cc1 [Example 43, (S)-5-((R)-2-(2-(hydroxyamino)-2-oxoethyl)hexanoyl)-N-(4-morpholinophenyl)-5-spiro[2.4]heptane-6-carboxamide]
> 32 µg/mL: Anti-bacterial activity (MIC), strain ECO+ 15-2 [4] | Anti-bacterial activity (MIC), strain ECO+ 15-3 [4] | Anti-bacterial activity (MIC), strain ECO− 15-1 [4] | Anti-bacterial activity (MIC), strain ECO− 15-2 [4] | Anti-bacterial activity (MIC), strain ECO− 15-3 [4] | Anti-bacterial activity (MIC), strain ECO− 15-4 [4] | Anti-bacterial activity (MIC), strain EFA 15-1 [8] | Anti-bacterial activity (MIC), strain EFA 15-2 [8] | Anti-bacterial activity (MIC), strain EFA 15-3 [8] | Anti-bacterial activity (MIC), strain EFA 15-4 [8] | Anti-bacterial activity (MIC), strain EFA 15-5 [8] | Anti-bacterial activity (MIC), strain EFA 15-6 [8] | Anti-bacterial activity (MIC), strain EFA 15-9 [8] | Anti-bacterial activity (MIC), strain EFM 15-1 [9] | Anti-bacterial activity (MIC), strain EFM 15-2 [9] | Anti-bacterial activity (MIC), strain EFM 15-3 [9] | Anti-bacterial activity (MIC), strain EFM 15-4 [9]
1 µg/mL: Anti-bacterial activity (MIC), strain MRSE 15-1 [2] | Anti-bacterial activity (MIC), strain MRSE 15-7 [2] | Anti-bacterial activity (MIC), strain MRSA 15-1 [3] | Anti-bacterial activity (MIC), strain MRSA 15-3 [3] | Anti-bacterial activity (MIC), strain ECO+ 15-1 [4] | Anti-bacterial activity (MIC), strain ECO+ 15-4 [4] | Anti-bacterial activity (MIC), strain MSSE 15-3 [5] | Anti-bacterial activity (MIC), strain MSSE 15-4 [5] | Anti-bacterial activity (MIC), strain MSSE 15-5 [5] | Anti-bacterial activity (MIC), strain MSSE 15-6 [5] | Anti-bacterial activity (MIC), strain BCA 14-5 [6] | Anti-bacterial activity (MIC), strain BCA 14-6 [6] | Anti-bacterial activity (MIC), strain SPN 16-2 [7] | Anti-bacterial activity (MIC), strain SPN 16-4 [7] | Anti-bacterial activity (MIC), strain EFM 15-5 [9] | Anti-bacterial activity (MIC), strain MSSA 15-5 [10]
4 µg/mL: Anti-bacterial activity (MIC), strain MRSE 15-2 [2] | Anti-bacterial activity (MIC), strain MRSE 15-3 [2] | Anti-bacterial activity (MIC), strain MRSA 15-2 [3] | Anti-bacterial activity (MIC), strain MRSA 15-4 [3] | Anti-bacterial activity (MIC), strain MSSA 15-3 [10] | Anti-bacterial activity (MIC), strain MSSA 15-4 [10] | Anti-bacterial activity (MIC), strain MSSA 15-6 [10]
2 µg/mL: Anti-bacterial activity (MIC), strain BCA 14-1 [6] | Anti-bacterial activity (MIC), strain BCA 14-4 [6] | Anti-bacterial activity (MIC), strain BCA 14-7 [6] | Anti-bacterial activity (MIC), strain BCA 14-8 [6] | Anti-bacterial activity (MIC), strain BCA 14-10 [6] | Anti-bacterial activity (MIC), strain EFM 15-6 [9]
6%: inhibition at 30 µM [1]

From US10738028B2, “Spiro three-membered ring, spiro five-membered ring peptide deformylase inhibitor and use thereof in antibacteria and anti-tumor” (priority 2016, dated 2020)
